This note sets out measurements from patent US8524730B2, “Spirochromanone carboxylic acids” (MSD K.K., priority 2008, dated 2013).

The target of assay [1] is human ACC1 (Homo sapiens, UniProt Q13085). Nature of the assay: Acetyl CoA carboxylase (ACC) activity inhibition test, human ACC1. Format: biochemical. Particulars: 1 μmol/liter compound; read-out: Inhibition (%) by 1 μmol/liter Chemical, human ACC1. As to the method:
(§1) A. Pharmacological Test Example (Acetyl CoA Carboxylase (ACC) Activity Inhibition Test)
(§2) A test compound is dissolved in dimethyl sulfoxide (DMSO) to a concentration of 10 mM and then diluted with DMSO to give a 100-fold concentrated solution of the compound compared with target assay concentration. The ACC enzyme activity inhibition test is carried out according to a modification of Thampy & Wakil's method (J. Biol. Chem., Vol. 260, pp. 6318-6323 (1985)). Concretely, 0.8 μl of the diluted test compound is added to each well of 96-well assay plate (Perkin Elmer Opti Plate), then 40 μl of a substrate solution (50 mM Hepes sodium (pH 7.5), 2 mM DTT, 10 mM ATP, 500 μM acetyl CoA, 0.17 mM NaH[^14C]O3 (58 mCi/mmol by Amersham), 8 mM NaHCO3) is added to each well, and 40 μL of an enzyme solution (1 to 2 nM human ACC1 or human ACC2, 50 mM Hepes sodium (pH 7.5), 2 mM DTT, 40 mM MgCl2, 40 mM tripotassium citrate 1 mg/ml fetal bovine serum albumin) is added thereto. Then, the upper side of the plate is sealed up, and the plate is incubated with gently stirring at 37° C. for 40 minutes. Next, 20 μl of 1 N HCl is added to each well to stop the enzyme reaction, and the assay plate is stirred overnight to remove the unreacted NaH[^14C]O3. Next, 100 μl of a scintillator (Perkin Elmer's Microscinti 40) is added to each well and the plate is stirred, then the radioactivity of the fixed [^14C] is counted using a microplate scintillation counter (Perkin Elmer's Topcount), the radioactivity of which represents the enzyme activity in each well. The human ACC1 and human ACC2 enzyme-inhibition activities of the test compounds are calculated, based on the radioactivity of the well added by DMSO without test compound as a control.

The target of assay [2] is human ACC2 (Homo sapiens, UniProt O00763). Nature of the assay: Acetyl CoA carboxylase (ACC) activity inhibition test, human ACC2. Format: biochemical. Particulars: 1 μmol/liter compound; read-out: Inhibition (%) by 1 μmol/liter Chemical, human ACC2. On the procedure: as §1, §2
Sequence of human ACC2 (O00763 whole entry): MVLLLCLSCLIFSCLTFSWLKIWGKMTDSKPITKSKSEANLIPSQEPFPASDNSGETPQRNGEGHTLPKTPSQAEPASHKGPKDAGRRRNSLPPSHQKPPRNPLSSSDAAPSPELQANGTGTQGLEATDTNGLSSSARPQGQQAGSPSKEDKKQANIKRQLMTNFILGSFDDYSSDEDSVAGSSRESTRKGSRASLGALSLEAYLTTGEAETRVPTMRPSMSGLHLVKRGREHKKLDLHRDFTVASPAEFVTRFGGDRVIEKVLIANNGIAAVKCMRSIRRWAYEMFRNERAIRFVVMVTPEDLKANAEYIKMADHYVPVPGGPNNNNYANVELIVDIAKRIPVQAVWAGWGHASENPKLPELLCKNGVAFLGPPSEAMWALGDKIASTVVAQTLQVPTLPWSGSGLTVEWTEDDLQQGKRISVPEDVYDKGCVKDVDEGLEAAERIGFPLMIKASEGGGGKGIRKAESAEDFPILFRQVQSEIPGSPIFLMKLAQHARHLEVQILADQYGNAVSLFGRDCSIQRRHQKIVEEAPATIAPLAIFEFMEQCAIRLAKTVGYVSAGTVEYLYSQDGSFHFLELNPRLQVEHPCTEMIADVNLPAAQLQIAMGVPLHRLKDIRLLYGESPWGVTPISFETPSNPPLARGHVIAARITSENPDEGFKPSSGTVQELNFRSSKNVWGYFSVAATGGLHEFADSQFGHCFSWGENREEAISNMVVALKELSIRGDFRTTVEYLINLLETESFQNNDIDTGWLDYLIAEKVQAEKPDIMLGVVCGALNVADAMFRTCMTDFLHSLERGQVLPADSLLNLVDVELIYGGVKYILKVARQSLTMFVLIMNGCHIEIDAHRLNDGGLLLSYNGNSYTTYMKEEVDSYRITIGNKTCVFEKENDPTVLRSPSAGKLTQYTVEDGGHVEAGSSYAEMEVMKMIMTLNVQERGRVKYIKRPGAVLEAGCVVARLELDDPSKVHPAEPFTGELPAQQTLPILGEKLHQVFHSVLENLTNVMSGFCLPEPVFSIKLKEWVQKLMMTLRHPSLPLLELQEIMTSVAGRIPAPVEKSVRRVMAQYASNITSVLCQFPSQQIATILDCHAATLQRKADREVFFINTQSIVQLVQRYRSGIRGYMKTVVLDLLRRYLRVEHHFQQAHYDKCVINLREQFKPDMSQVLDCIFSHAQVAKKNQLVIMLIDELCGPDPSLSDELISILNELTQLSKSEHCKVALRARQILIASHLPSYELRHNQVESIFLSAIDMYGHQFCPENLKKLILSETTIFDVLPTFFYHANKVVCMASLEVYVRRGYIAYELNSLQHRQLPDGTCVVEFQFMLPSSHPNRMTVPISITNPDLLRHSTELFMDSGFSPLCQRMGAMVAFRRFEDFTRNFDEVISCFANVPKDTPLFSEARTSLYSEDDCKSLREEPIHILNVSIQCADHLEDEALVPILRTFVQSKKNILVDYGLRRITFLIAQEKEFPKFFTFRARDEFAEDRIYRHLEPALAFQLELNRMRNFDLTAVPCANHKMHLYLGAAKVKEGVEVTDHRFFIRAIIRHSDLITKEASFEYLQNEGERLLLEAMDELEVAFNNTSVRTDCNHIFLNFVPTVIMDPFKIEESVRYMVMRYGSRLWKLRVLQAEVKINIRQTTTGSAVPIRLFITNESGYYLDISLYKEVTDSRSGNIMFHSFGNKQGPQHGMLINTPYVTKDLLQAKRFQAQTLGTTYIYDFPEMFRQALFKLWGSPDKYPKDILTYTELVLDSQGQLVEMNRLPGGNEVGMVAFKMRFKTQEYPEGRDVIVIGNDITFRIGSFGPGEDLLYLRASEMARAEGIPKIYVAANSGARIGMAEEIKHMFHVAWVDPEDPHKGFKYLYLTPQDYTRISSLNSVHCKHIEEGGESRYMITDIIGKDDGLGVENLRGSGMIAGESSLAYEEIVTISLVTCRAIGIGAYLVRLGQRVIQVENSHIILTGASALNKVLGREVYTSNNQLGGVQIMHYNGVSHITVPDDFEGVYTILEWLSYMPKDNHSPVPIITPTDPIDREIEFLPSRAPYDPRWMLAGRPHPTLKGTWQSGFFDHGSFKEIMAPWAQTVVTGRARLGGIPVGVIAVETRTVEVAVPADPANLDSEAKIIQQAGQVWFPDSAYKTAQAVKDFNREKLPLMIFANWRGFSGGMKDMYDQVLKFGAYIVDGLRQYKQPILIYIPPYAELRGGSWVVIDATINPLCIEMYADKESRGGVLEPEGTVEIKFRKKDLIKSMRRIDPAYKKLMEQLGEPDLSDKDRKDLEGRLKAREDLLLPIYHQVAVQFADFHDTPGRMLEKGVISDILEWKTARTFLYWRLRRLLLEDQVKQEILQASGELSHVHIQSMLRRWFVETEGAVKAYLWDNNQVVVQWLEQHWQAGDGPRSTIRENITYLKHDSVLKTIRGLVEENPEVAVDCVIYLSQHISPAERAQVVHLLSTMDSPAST

For `CCOc1cc(C(=O)N2CCC3(CC2)CC(=O)c2cc(-c4ccc(C(N)=O)cn4)ccc2O3)cc(OCC)c1-c1ccc(C(=O)O)cc1` [Example 5], the inhibition at 1 µM in assay [1] was 98%; in assay [2], 99%.
In the same order, the values of `Cc1nn(-c2ccc(C(=O)O)cc2)c2ccc(C(=O)N3CCC4(CC3)CC(=O)c3cc(-c5cnn(C)c5)ccc3O4)cc12` [Example 13, 4-(3-Methyl-5-{[6-(1-methyl-1H-pyrazol-4-yl)-4-oxospiro[chroman-2,4′-piperidin]-1′-yl]carbonyl}-1H-indazol-1-yl)benzoic acid] are 99% and 99%.
Take `CCOc1cc(C(=O)N2CCC3(CC2)CC(=O)c2cc(-c4cnn(C)c4)ccc2O3)cc(OCC)c1-c1cncc(C(=O)O)c1` [Example 21, 5-(2,6-Diethoxy-4-{[6-(1-methyl-1H-pyrazol-4-yl)-4-oxospiro[chroman-2,4′-piperidin]-1′-yl]carbonyl}phenyl)nicotinic acid]: the inhibition at 1 µM in assay [1] and in assay [2] was 100% in each case.
With `CCOc1cc(C(=O)N2CCC3(CC2)CC(=O)c2cc(-c4cnn(C)c4)ccc2O3)cc(OCC)c1-c1ccc(C(=O)O)cc1` [Example 18, Sodium 2′,6′-diethoxy-4′-{[6-(1-methyl-1H-pyrazol-4-yl)-4-oxospiro[chroman-2,4′piperidin]-1′-yl]carbonyl}biphenyl-4-carboxylate], the inhibition at 1 µM in assay [1] was found to be 99%; in assay [2] it was 100%.
`CCOc1cc(C(=O)N2CCC3(CC2)CC(=O)c2cc(-c4ccc(C(N)=O)cc4)ccc2O3)cc(OCC)c1-c1ccc(C(=O)O)cc1` [Example 3, 4′-({6-(4-Carbamoylphenyl)-4-oxospiro[chroman-2,4′-piperidin]-1′-yl}carbonyl)-2′,6′-diethoxybiphenyl-4-carboxylic acid]: the inhibition at 1 µM in assay [1] stood at 100%; in assay [2], 99%.
In the same order, the values of `CCOc1cc(C(=O)N2CCC3(CC2)CC(=O)c2cc(-c4cnn(C)c4)ccc2O3)cc(OCC)c1-c1cccc(C(=O)O)c1` [Example 20, Sodium 2′,6′-diethoxy-4′-{[6-(1-methyl-1H-pyrazol-4-yl)-4-oxospiro[chroman-2,4′-piperidin]-1′-yl]carbonyl}biphenyl-3-carboxylate] are 100% and 99%.
